We go through 21 compounds from US8389557B2, “Triazole derivatives useful as Axl inhibitors” (Rigel Pharmaceuticals, Inc., priority 2005, dated 2013).

Molecules are shown by their SMILES. Some results are limits rather than exact numbers.

The target of this assay is T1, Axl (Homo sapiens, UniProt P30530).
T1 construct: endogenous in cells; host or cells: HeLa cells
T1 sequence (P30530 26-894): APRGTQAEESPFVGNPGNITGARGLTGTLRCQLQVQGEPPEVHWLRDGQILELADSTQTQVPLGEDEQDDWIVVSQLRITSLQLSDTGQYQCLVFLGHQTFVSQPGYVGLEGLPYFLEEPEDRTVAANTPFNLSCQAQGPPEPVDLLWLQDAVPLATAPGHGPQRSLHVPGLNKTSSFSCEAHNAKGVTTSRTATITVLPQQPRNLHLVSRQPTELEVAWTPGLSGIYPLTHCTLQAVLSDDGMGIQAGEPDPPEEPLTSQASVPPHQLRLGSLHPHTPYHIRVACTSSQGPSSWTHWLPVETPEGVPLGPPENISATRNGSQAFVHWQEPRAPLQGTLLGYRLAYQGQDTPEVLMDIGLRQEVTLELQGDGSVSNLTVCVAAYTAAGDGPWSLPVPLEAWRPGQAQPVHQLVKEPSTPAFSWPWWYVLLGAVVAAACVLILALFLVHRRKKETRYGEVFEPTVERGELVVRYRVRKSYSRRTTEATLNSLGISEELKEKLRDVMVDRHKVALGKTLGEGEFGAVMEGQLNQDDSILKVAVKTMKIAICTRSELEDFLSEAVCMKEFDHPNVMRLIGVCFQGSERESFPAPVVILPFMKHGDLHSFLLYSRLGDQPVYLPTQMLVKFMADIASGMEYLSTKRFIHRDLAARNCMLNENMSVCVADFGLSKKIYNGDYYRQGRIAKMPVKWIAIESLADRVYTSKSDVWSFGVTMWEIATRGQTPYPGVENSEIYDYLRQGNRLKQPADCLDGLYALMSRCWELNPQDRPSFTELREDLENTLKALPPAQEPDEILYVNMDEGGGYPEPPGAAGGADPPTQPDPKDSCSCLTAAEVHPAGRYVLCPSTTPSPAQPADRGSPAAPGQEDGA
The experiment in a line: Phospho-Akt in-cell Western assay (inhibition of Axl activity). Format: cell-based. The protocol:
The compounds of the invention were tested in the following assay for their ability to inhibit Axl activity.
Phospho-Akt in-Cell Western Assay
• Cell culture plate: 96 well assay plate (Corning 3610), white, clear bottom, tissue-culture treated. • Cells: Hela cells. • Starvation medium: For Axl stimulation: 0.5% FCS (fetal calf serum) in DMEM, plus Axl/Fc (extracellular domain of AXL fused to immunoglobulin Fc region) (R&D, 154-AL) 500 ng/mL. • For EGF (epidermal growth factor) stimulation: 0.5% FCS in DMEM (Dulbecco's modified Eagles medium). • Poly-L-Lysine 0.01% solution (the working solution): 10 μg/ml, dilute In PBS (phosphate buffered saline). • Axl antibody cross-linking: • 1st: Mouse anti-Axl (R&D, MAB154). • 2nd: Biotin-SP-conjugated AffiniPure goat anti-mouse IgG (H+L) (Jackson ImmunoResearch #115-065-003). • Fixing buffer: 4% formaldehyde in PBS. • Wash buffer: 0.1% TritonX-100 in PBS. • Quenching buffer: 3% H2O2, 0.1% Azide in wash buffer, Azide and hydrogen peroxide (H2O2) are added fresh. • Blocking buffer: 5% BSA in TBST (tris buffered saline plus 0.1% Tween 20). • Primary antibody: Rabbit anti-human Phospho-Akt antibody (Cell Signaling 9271): 1×250 diluted in blocking buffer. • Secondary antibody: HRP (horse radish peroxidase)-conjugated Goat anti-Rabbit secondary, stock solution: Jackson ImmunoResearch (Goat anti-Rabbit HRP, #111-035-144) 1:1 diluted in glycerol, store at −20° C. The working solution: 1×2000 dilution of stock in blocking buffer. • Chemiluminescent working solution (Pierce, 37030): SuperSignal ELISA (enzyme linked immunosorbant assay) Pico Chemiluminescent substrate. • Crystal Violet solution: Stock: 2.5% Crystal violet in methanol, filtered and kept at ambient temperature. The working solution: dilute the stock 1:20 with PBS immediately before use. • 10% SDS: working solution: 5% SDS (sodium dodecylsulfate), diluted in PBS Methods: Day 1:
A 96 well TC (tissue culture treated) plate was coated with 10 μg/mL poly-L-Lysine at 37° C. for 30 min, washed twice with PBS, and air-dried for 5 minutes before cells were added. Hela cells were seeded at 10,000 cells/well and the cells were starved in 100 μL starvation medium containing Axl/Fc for 24 hrs.
The cells were pre-treated with test compounds by adding 100 μL of 2× test compound to the starvation medium on the cells. The cells were incubated at 37° C. for 1 hr before stimulation.
The cells were stimulated by Axl-antibody cross-linking as follows: A 5×1st/2nd Axl antibody mixture was made (37.5 μg/mL 1st/100 μg/mL 2nd) in starvation medium and nutated at 4° C. with thorough mixing for 1-2 hours for clustering. The resulting mix was warmed to 37° C. 50 μL of 5× Axl 1st/2nd of antibody cluster was added to the cells and the cells were incubated at 37° C. for 5 min.
After 5 minutes stimulation, the plate was flicked to remove medium and the plate was tapped onto paper towels. Formaldehyde (4.0% in PBS, 100 μL) was added to fix the cells and the cells were incubated at ambient temperature for 20 min without shaking.
The cells were washed with a plate washer buffer to remove the formaldehyde solution. The plate was flicked to removed excess wash buffer and tapped onto paper towels. Quenching buffer (100 μL) was added to each well and the cells were incubated at ambient temperature for 20 minutes without shaking.
The cells were washed with a plate washer buffer to remove the quenching buffer. Blocking buffer (100 μL) was added and the cells were incubated at ambient temperature for at least an hour with gentle shaking.
The cells were washed with a plate washer buffer and diluted primary antibody (50 μL) was added to each well (blocking buffer was added to the negative control wells instead). The plates were incubated overnight at 4° C. with gentle shaking.
The wash buffer was removed, diluted secondary antibody (100 μL) was added, and the cells were incubated at ambient temperature for 1 hour with gentle shaking. […]

Where [1] appears, read: Table 5, Hela cells, Axl antibody cross-linking stimulation, phospho-Akt chemiluminescence.
Where [2] appears, read: inhibition of Axl activity, Table 1.
Setting [3] is: Table 3, Hela cells, Axl antibody cross-linking stimulation, phospho-Akt chemiluminescence.
Where [4] appears, read: inhibition of Axl activity, phospho-Akt in-cell Western assay, Table 1.

In the case of `Cc1cccc(C(=O)n2nc(Nc3nc4ccccc4s3)nc2N)c1` [compound 256, 5-amino-3-(benzothiazol-2-yl)amino-1-(3-methylphenyl)carbonyl-1H-1,2,4-triazole], the IC50 under setting [1] is over 20 µM.

Compound `COCOc1cccc(Nc2nc(N)n(C(=O)c3cccc(C)c3)n2)c1` [compound 216, 5-amino-3-(3-methoxymethoxy)phenylamino-1-(3-methylphenyl)carbonyl-1H-1,2,4-triazole] gave an IC50 under setting [2] of over 20 µM.

In turn, `Cc1ccsc1C(=O)n1nc(Nc2ccc(OCCN3CCCC3)cc2)nc1N` [compound 283, 5-amino-1-(3-methylthien-2-yl)carbonyl-3-[4-[2-(pyrrolidin-1-yl)ethoxy]phenylamino]-1H-1,2,4-triazole] displayed an IC50 under setting [3] of under 1 µM.

`CC(C)(C)C(=O)Nc1ccc(C(=O)n2nc(Nc3ccc(OCCN4CCCC4)cc3)nc2N)cc1` [compound 290, 5-amino-1-(4-(tert-butylcarbonylamino)phenyl)carbonyl-3-[4-[2-(pyrrolidin-1-yl)ethoxy]phenylamino]-1H-1,2,4-triazole] showed an IC50 under setting [4] of 10 to 20 µM.

Under setting [4], `CC(C)Oc1ccc(C(=O)n2nc(Nc3ccc(N4CCCC4)cc3)nc2N)cc1` [compound 293, 5-amino-1-(4-(iso-propoxy)phenyl)carbonyl-3-[4-(pyrrolidin-1-yl)phenylamino]-1H-1,2,4-triazole] showed an IC50 of 1 to 10 µM.

Consider `COc1ccc(Nc2nc(N)n(C(=O)c3ccc(C)cc3)n2)cc1` [compound 132, 5-amino-3-[4-(methoxy)phenylamino]-1-(4-(methyl)phenyl)carbonyl-1H-1,2,4-triazole], for which, under setting [2], the IC50 lay within 1 to 10 µM.

Take `Nc1nc(Nc2ccc3c(c2)OCCO3)n(C(=O)c2ccccc2)n1` [compound 92, 3-amino-5-(1,4-benzodioxan-6-yl)amino-1-phenylcarbonyl-1H-1,2,4-triazole]: where the note is “Table 2, Hela cells, Axl antibody cross-linking stimulation, phospho-Akt chemiluminescence”, the IC50 was in the range of 1 to 10 µM.

For the compound `Nc1nc(Nc2ccc(OCCN3CCCC3)cc2)nn1C(=O)c1cccs1` [compound 285, 5-amino-1-(thien-2-yl)carbonyl-3-[4-[2-(pyrrolidin-1-yl)ethoxy]phenylamino]-1H-1,2,4-triazole], the IC50 under setting [3] was under 1 µM.

`Cc1ccccc1C(=O)n1nc(Nc2cccc(O)c2)nc1N` [(Ia-6), 5-amino-3-[3-(hydroxy)phenylamino]-1-(2-(methyl)phenyl)carbonyl-1H-1,2,4-triazole] yielded an IC50 under setting [2] of over 20 µM.

For the compound `Nc1nc(Nc2ccc(OCCN3CCCC3)c(F)c2)nn1C(=O)c1ccc(N2CCOCC2)cc1` [compound 262, 5-amino-3-[4-[2-(pyrrolidin-1-yl)ethoxy]-3-fluorophenyl]amino-1-[4-(morpholin-4-yl)phenyl]carbonyl-1H-1,2,4-triazole], the IC50 under setting [4] is under 1 µM.

In turn, `CCOc1cccc(Nc2nc(N)n(C(=O)c3ccc(OC(C)C)cc3)n2)c1` [compound 125, 5-amino-3-[3-(ethoxy)phenylamino]-1-(4-(iso-propoxy)phenyl)carbonyl-1H-1,2,4-triazole] had an IC50 under setting [2] of 1 to 10 µM.

Regarding `COc1cc(NC(=O)n2nc(N)nc2Nc2ccc(OCCN3CCCCC3)cc2)cc(OC)c1` [compound 188, 3-amino-N-(3,5-dimethoxyphenyl)-5-[4-[2-(piperidin-1-yl)ethoxy]phenylamino]-1H-1,2,4-triazole-1-carboxamide], the IC50 (Table 8, Hela cells, Axl antibody cross-linking stimulation, phospho-Akt chemiluminescence) is 1 to 10 µM.

As to `Cc1cccc(C(=O)n2nc(Nc3cccc(OCC(=O)NCC(O)CO)c3)nc2N)c1` (stereo not drawn) [compound 153, 5-amino-3-[3-(N-(2,3-dihydroxypropyl)amino)carbonylmethoxy]-phenylamino-1-(3-(methyl)phenyl)carbonyl-1H-1,2,4-triazole], the IC50 under setting [2] lay within 1 to 10 µM.

Under setting [2], `COC(=O)COc1cccc(Nc2nc(N)n(C(=O)c3cccc(C)c3)n2)c1` [compound 147, 5-amino-3-[3-(methoxycarbonylmethoxy)phenylamino]-1-(3-(methyl)phenyl)carbonyl-1H-1,2,4-triazole] gave an IC50 of 1 to 10 µM.

With `Cc1cccc(C(=O)n2nc(Nc3ccc4oc(C(=O)NCCO)cc4c3)nc2N)c1` [compound 208, 5-amino-3-[2-[2-hydroxyethylaminocarbonyl]benzofuran-5-yl]amino-1-(3-methylphenyl)carbonyl-1H-1,2,4-triazole], the IC50 under setting [1] lay in the range of 1 to 10 µM.

Take `Cc1ccc(C(=O)n2nc(Nc3cccc(O)c3)nc2N)cc1` [(Ia-15), 5-amino-3-[3-(hydroxy)phenylamino]-1-(4-(methyl)phenyl)carbonyl-1H-1,2,4-triazole]: under setting [2], the half-maximal inhibitory concentration (IC50) fell in the range of 10 to 20 µM.

On to `Cc1cccc(C(=O)n2nc(Nc3ccc4occc4c3)nc2N)c1` [compound 229, 5-amino-3-(benzofuran-5-yl)amino-1-(3-methylphenyl)carbonyl-1H-1,2,4-triazole], for which, under setting [1], the IC50 is 1 to 10 µM.

Under setting [4], `COc1cc(Nc2nc(N)n(C(=O)c3ccc(OC(C)C)cc3)n2)ccc1OCCN1CCCC1` [compound 316, 5-amino-1-(4-(iso-propoxy)phenyl)carbonyl-3-[3-methoxy-4-[2-(pyrrolidin-1-yl)ethoxy]phenylamino]-1H-1,2,4-triazole] had an IC50 of under 1 µM.

In turn, `CC(C)Oc1ccc(C(=O)n2nc(Nc3ccc(OC4CCCC4)cc3)nc2N)cc1` [compound 151, 5-amino-3-[4-(cyclopentoxy)phenylamino]-1-(4-(iso-propoxy)phenyl)carbonyl-1H-1,2,4-triazole] came in with an IC50 under setting [2] of over 20 µM.

In turn, `Nc1nc(Nc2ccc(OCCN3CCCCC3)cc2)nn1C(=O)NC1CCCCC1` [compound 42, 5-amino-N-cyclohexyl-3-[4-[2-(piperidin-1-yl)ethoxy]phenylamino]-1H-1,2,4-triazole-1-carboxamide] displayed an IC50 (Table 7, Hela cells, Axl antibody cross-linking stimulation, phospho-Akt chemiluminescence) of 1 to 10 µM.

With `COc1ccc(C(=O)n2nc(Nc3ccc(OCCN4CCCC4)cc3)nc2N)cc1F` [compound 381, 5-amino-1-(3-fluoro-4-methoxyphenyl)carbonyl-3-[4-[2-(pyrrolidin-1-yl)ethoxy]phenylamino]-1H-1,2,4-triazole], the IC50 under setting [4] was under 1 µM.

The term IC50 denotes the concentration at which inhibition is half-maximal.
